Results taken from patent US9695154B2, “Heteroaryl inhibitors of sumo activating enzyme” (MILLENNIUM PHARMACEUTICALS, INC., priority 2013, dated 2017).

Biological target: T1, recombinant human SAE enzyme (Homo sapiens, UniProt Q9UBT2)
T1 sequence (Q9UBT2 1-640): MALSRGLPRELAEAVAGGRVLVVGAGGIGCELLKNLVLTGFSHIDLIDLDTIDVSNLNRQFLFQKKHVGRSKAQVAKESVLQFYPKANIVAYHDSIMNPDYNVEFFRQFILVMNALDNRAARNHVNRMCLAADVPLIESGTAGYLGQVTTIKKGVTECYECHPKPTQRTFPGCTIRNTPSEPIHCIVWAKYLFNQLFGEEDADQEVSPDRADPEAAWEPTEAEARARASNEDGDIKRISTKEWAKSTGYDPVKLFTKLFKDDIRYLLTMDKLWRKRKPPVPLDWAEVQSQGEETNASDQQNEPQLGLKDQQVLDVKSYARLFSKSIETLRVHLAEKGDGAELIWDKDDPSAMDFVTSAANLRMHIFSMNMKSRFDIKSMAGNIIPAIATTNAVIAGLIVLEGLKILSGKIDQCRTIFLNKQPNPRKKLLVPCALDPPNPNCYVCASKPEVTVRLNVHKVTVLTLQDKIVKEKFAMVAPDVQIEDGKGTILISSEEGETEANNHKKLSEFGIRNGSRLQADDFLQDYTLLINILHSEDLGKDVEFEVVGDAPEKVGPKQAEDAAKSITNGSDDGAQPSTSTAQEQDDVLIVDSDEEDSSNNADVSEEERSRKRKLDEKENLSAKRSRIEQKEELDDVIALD
T1 sequence (Q9UBE0 1-346 partner): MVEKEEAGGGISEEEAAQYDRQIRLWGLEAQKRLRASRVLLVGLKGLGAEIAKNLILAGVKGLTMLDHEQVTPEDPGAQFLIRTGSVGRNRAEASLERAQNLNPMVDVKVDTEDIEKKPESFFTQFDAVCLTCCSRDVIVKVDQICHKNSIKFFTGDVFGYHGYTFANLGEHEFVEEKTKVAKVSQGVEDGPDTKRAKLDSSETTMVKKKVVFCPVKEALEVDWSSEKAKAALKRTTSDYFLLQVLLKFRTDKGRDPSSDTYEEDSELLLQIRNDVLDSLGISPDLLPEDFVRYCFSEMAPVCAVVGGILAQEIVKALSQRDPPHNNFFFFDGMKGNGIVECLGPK
Test: SAE HTRF Enzyme Assay
Format: biochemical
Settings: for IC50: class symbols A-C; for inhibition at 0.111 µM: compound concentration 0.111 μM, read-out: Percent Inhibition
Description: The SAE enzymatic reaction totals 50 μl and contains 50 mM HEPES Hemisodium (pH 7.5), 0.05% BSA, 5 mM MgCl2, 0.5 μM ATP, 250 μM GSH, 0.01 μM Ubc9-GST, 0.125 μM Sumo-Flag and 0.11 nM recombinant human SAE enzyme. The enzymatic reaction mixture with and without inhibitor, Is incubated at 24° C. for 105 min in a 384-well plate before termination with […] of Stop/Detection buffer (0.1M HEPES Hemisodium pH 7.5, 0.05% Tween20, 20 mM EDTA, 410 mM KF, 0.53 nM Europium-Cryptate labeled monoclonal anti-Flag M2 Antibody (CisBio International) and 8.125 μg/ml PHYCOLINK goat anti-GST allophycocyanin (XL-APC) antibody (Prozyme)). After incubation for 2 hours at 24° C., quantification of FRET is performed on the Pherostar™ (BMG Labtech). Percentage inhibition values at a single concentration or enzyme inhibition (IC50) values are determined from those curves. One skilled in the art will appreciate that the values generated either as percentage inhibition at a single concentration or IC50 values are subject to experimental variation.

Compound	IC50	inhibition at 0.111 µM
NS(=O)(=O)OC[C@H]1C[C@@H](Nc2ncncc2C(=O)c2ccn(CC(=O)c3ccccc3)n2)[C@H](O)[C@@H]1O [Compound I-125, {(1R,2R,3S,4R)-2,3-Dihydroxy-4-[(5-{([1-(2-oxo-2-phenylethyl)-1H-pyrazol-3-yl]carbonyl}pyrimidin-4-yl)amino]cyclopentyl}methyl sulfamate]	< 10 nM	99%
C#CCn1ccc(C(=O)c2cncnc2N[C@@H]2C[C@H](COS(N)(=O)=O)[C@@H](O)C2)c1 [Compound I-330, {(1R,2S,4R)-2-hydroxy-4-[(5-{[1-{prop-2-yn-1-yl)-1H-pyrrol-3-yl]carbonyl}pyrimidin-4-yl)amino]cyclopentyl}methyl sulfamate]	10 to 100 nM	82%
NS(=O)(=O)OC[C@H]1C[C@@H](Nc2ncncc2C(=O)c2ccn(Cc3cc(F)cc(Cl)c3)n2)[C@H](O)[C@@H]1O [Compound I-334, {(1R,2R,3S,4R)-4-[(5-{[1-(3-chloro-5-fluorobenzyl)-1H-pyrazol-3-yl]carbonyl}pyrimidin-4-yl)amino]-2,3-dihydroxycyclopentyl}methyl sulfamate]	< 10 nM	98%
NS(=O)(=O)OC[C@H]1C[C@@H](Nc2ncncc2C(=O)c2ccn(Cc3cccc(C4(O)COC4)n3)n2)C[C@@H]1O [Compound I-120, [(1R,2S,4R)-2-hydroxy-4-({5-[(1-{[6-(3-hydroxyoxetan-3-yl)pyridin-2-yl]methyl) 1H pyrazol-3-yl)carbonyl]pyrimidin-4-yl}amino)cyclopentyl]methyl sulfamate]	100 to 1000 nM	47%
NS(=O)(=O)OC[C@H]1C[C@@H](Nc2ncncc2C(=O)c2ccn(CCc3cccc4ccccc34)n2)[C@H](O)[C@@H]1O [Compound I-118, [(1R,2R,3S,4R)-2,3-dihydroxy-4-{[5-({1-[2-(1-naphthyl)ethyl]-1H-pyrazol-3-yl}carbonyl)pyrimidin-4-yl]amino}cyclopentyl]methyl sulfamate]	< 10 nM	99%
NS(=O)(=O)OC[C@H]1C[C@@H](Nc2ccncc2C(=O)c2ccn(Cc3cccc(OC(F)F)c3)n2)C[C@@H]1O [Compound I-246, [(1R,2S,4R)-4-{[3-({1-[3-(difluoromethoxy)benzyl]-1H-pyrazol-3-yl}carbonyl)pyridin-4-yl]amino}-2-hydroxycyclopentyl]methyl sulfamate]	< 10 nM	97%
NS(=O)(=O)OC[C@H]1C[C@@H](Nc2ncncc2C(=O)c2ccn(Cc3cc(Cl)ccc3Cl)n2)[C@@H](F)[C@@H]1O [Compound I-307, {(1R,2R,3R,4R)-4-[(5-{[1-(2,5-dichlorobenzyl)-1H-pyrazol-3-yl]carbonyl}pyrimidin-4-yl)amino]-3-fluoro-2-hydroxycyclopentyl}methyl sulfamate]	< 10 nM	98%
NS(=O)(=O)OC[C@H]1C[C@@H](Nc2ncncc2C(=O)c2cc(Cl)n(Cc3cccc(Br)c3)c2)[C@@H](F)[C@@H]1O [Compound I-244, {(1R,2R,3R,4R)-4-[(5-{[1-(3-Bromobenzyl)-5-chloro-1H-pyrrol-3-yl]carbonyl}pyrimidin-4-yl)amino]-3-fluoro-2-hydroxycyclopentyl}methyl sulfamate]	< 10 nM	98%
Cc1cc(C(=O)c2cncnc2N[C@@H]2C[C@H](COS(N)(=O)=O)[C@@H](O)[C@@H]2F)nn1Cc1ccc(C(F)(F)F)o1 [Compound I-197, [(1R,2R,3R,4R)-3-Fluoro-2-hydroxy-4-({5-[(5-methyl-1-{[5-(trifluoromethyl)-2-furyl]methyl}-1H-pyrazol-3-yl)carbonyl]pyrimidin-4-yl}amino)cyclopentyl]methyl sulfamate]	< 10 nM	99%
Cc1cc(C(=O)c2cncnc2N[C@@H]2C[C@H](COS(N)(=O)=O)[C@@H](O)C2)nn1C(C)c1cccc(Cl)c1 (single isomer, unassigned) [Compound I-172, [(1R,2S,4R)-4-{[5-({1-[(1R)-1-(3-chlorophenyl)ethyl]-5-methyl-1H-pyrazol-3-yl}carbonyl)pyrimidin-4-yl]amino}-2-hydroxycyclopentyl]methyl sulfamate or [(1R,2S,4R)-4-{[5-({1-[(1S)-1-(3-chlorophenyl)ethyl]-5-methyl-1H-pyrazol-3-yl}carbonyl)pyrimidin-4-yl]amino}-2-hydroxycyclopentyl]methyl sulfamate]	10 to 100 nM	83%
NS(=O)(=O)OC[C@H]1C[C@@H](Nc2ncncc2C(=O)c2ccn(Cc3ccc(Cl)c(Cl)c3)n2)[C@@H](F)[C@@H]1O [Compound I-311, {(1R,2R,3R,4R)-4-[(5-{[1-(3,4-dichlorobenzyl)-1H-pyrazol-3-yl]carbonyl}pyrimidin-4-yl)amino]-3-fluoro-2-hydroxycyclopentyl}methyl sulfamate]	< 10 nM	98%
NS(=O)(=O)OC[C@H]1C[C@@H](Nc2ncncc2C(=O)c2ccn(Cc3ccc(Cl)cc3F)n2)[C@H](O)[C@@H]1O [Compound I-146, {(1R,2R,3S,4R)-4-[(5-{[1-(4-chloro-2-fluorobenzyl)-1H-pyrazol-3-yl]carbonyl}pyrimidin-4-yl)amino]-2,3-dihydroxycyclopentyl}methyl sulfamate]	< 10 nM	99%
NS(=O)(=O)OC[C@H]1C[C@@H](Nc2ncncc2C(=O)c2cc(Cl)n(Cc3ccc(Cl)o3)c2)[C@@H](F)[C@@H]1O [Compound I-254, [(1R,2R,3R,4R)-4-{[5-({5-chloro-1-[(5-chloro-2-furyl)methyl]-1H-pyrrol-3-yl}carbonyl)pyrimidin-4-yl]amino}-3-fluoro-2-hydroxycyclopentyl]methyl sulfamate]	< 10 nM	99%
NS(=O)(=O)OC[C@H]1C[C@@H](Nc2ncncc2C(=O)c2ccn(CC#CCC3CCOCC3)n2)C[C@@H]1O [Compound I-12, [(1R,2S,4R)-2-hydroxy-4-{[5-({1-[4-(tetrahydro-2H-pyran-4-yl)but-2-yn-1-yl]-1H-pyrazol-3-yl}carbonyl)pyrimidin-4-yl]amino}cyclopentyl]methyl sulfamate]	100 to 1000 nM	39%
NS(=O)(=O)OC[C@H]1C[C@@H](Nc2ncncc2C(=O)c2ccn(Cc3ccc(F)cc3C(F)(F)F)n2)C[C@@H]1O [Compound I-328, [(1R,2S,4R)-4-{[5-({1-[4-fluoro-2-(trifluoromethyl)benzyl]-1H-pyrazol-3-yl}carbonyl)pyrimidin-4-yl]amino}-2-hydroxycyclopentyl]methyl sulfamate]	10 to 100 nM	65%
NS(=O)(=O)OC[C@H]1C[C@@H](Nc2ncncc2C(=O)c2ccn(Cc3cccc(Cl)n3)c2)[C@@H](F)[C@@H]1O [Compound I-8, [(1R,2R,3R,4R)-4-{[5-({1-[(6-Chloropyridin-2-yl)methyl]-1H-pyrrol-3-yl}carbonyl)pyrimidin-4-yl]amino}-3-fluoro-2-hydroxycyclopentyl]methyl sulfamate]	< 10 nM	99%
NS(=O)(=O)OC[C@H]1C[C@@H](Nc2ncncc2C(=O)c2ccn(CCc3cccc(Br)c3)c2)[C@@H](F)[C@@H]1O [Compound I-243, [(1R,2R,3R,4R)-4-{[5-({1-[2-(3-bromophenyl)ethyl]-1H-pyrrol-3-yl}carbonyl)pyrimidin-4-yl]amino}-3-fluoro-2-hydroxycyclopentyl]methyl sulfamate]	< 10 nM	99%
NS(=O)(=O)OC[C@H]1C[C@@H](Nc2ccncc2C(=O)c2ccn(Cc3cccc(Cl)c3)c2)[C@@H](F)[C@@H]1O [Compound I-124, {(1R,2R,3R,4R)-4-[(3-{[1-(3-chlorobenzyl)-1H-pyrrol-3-yl]carbonyl}pyridin-4-yl)amino]-3-fluoro-2-hydroxycyclopentyl}methyl sulfamate]	< 10 nM	97%
